Here are results for one substance from patent US20080274121A1, “Inhibition of Angiogenesis by Mithramycin” (priority 2007, published 2008).

Common to all, as to format: cell-based, human
Experiment [1] relates to Sp1 recruitment into the Sp1 promoter. The experiment can be described thus: ChIP assay, PANC-1 cells in vitro. The note with it: 100 μg/ml BVZ or 0.1 μM MIT, 2 days. As to the method:
FIG. 15. Effects of treatment with BVZ and MIT on Sp1 recruitment into the Sp1 promoter in human pancreatic cancer cells in vitro and in vivo. A, schematic structures of the minimal Sp1 promoters. The nucleotide positions and sequences of Sp1-binding sites and polymerase chain reaction forward and reverse primers flanking those sites for ChIP assay are shown. B, Sp1 and VEGF promoter reporter constructs were transfected into PANC-1 cells in triplicate and incubated for 12 hours. The cells were then incubated for another 24 hours in a medium alone or a medium containing 100 μg/ml BVZ or 0.1 μM MIT. Total protein lysates were harvested from the cell cultures for measurement of Sp1 and VEGF promoter activity using a luciferase assay kit. The relative Sp1 and VEGF promoter activities were assessed, and the activity in treated groups was expressed as the fold change of that in their respective control groups. C and D, chromatin was extracted from (C) PANC-1 cells that were incubated in vitro for 2 days in a medium alone or a medium containing 100 μg/ml BVZ or 0.1 μM MIT and (D) tumors formed by PANC-1 cells in nude mice that received treatment as described in FIG. 2A. […]

Experiment [2] relates to PANC-1 cells. The experiment is described as follows: Viable cell count in vitro, PANC-1. The note with it: 100 μg/ml BVZ. As to the method: (§1) FIG. 14. Effects of treatment with BVZ and MIT on the growth of and gene expression in human pancreatic cancer cells in vitro. (A) BxPC3 and (B) PANC-1 cells were incubated for 1 to 5 days in a medium alone or a medium containing 100 μg/ml BVZ. The viable cells were counted every 24 hours. C, PANC-1 cells were incubated for 6 to 48 hours in a medium alone or a medium containing 100 μg/ml BVZ. Total protein lysates were harvested from the cell cultures, and the level of Sp1, EGFR, and VEGF protein expression was determined using Western blot analysis. Equal protein-sample loading was monitored by probing the same membrane filter with an anti-glyceraldehyde-3-phosphate dehydrogenase antibody (GAPDH). D and E, PANC-1 cells were treated with MIT at concentrations ranging from 0.1 to 1.2 μM for 24 and 48 hours. (D) Cytotoxicity was assessed using the MTT assay, and (E) the level of gene expression was determined using Western blot analysis. NS, nonspecific.
Effects of treatment with BVZ and MIT on the growth of and gene expression in human pancreatic cancer cells. To further determine whether treatment with BVZ directly impacts gene expression in pancreatic cancer cells, we incubated PANC-1 and BxPC3 cells in a medium alone or a medium containing 100 μg/ml BVZ for 6 to 48 hours.

The subject of experiment [3] is Sp1, EGFR, and VEGF protein expression. The experiment is described as follows: Western blot of gene expression in PANC-1 cells in vitro. The following applies: 100 μg/ml BVZ, 6 to 48 hours. Here is the method:
as §1, with “D and E, PANC-1 cells were treated with MIT at concentrations ranging from 0.1 to 1.2 μM for 24 and 48 hours.” left out
Western blot analysis. Whole-cell lysates were prepared from human pancreatic cancer cell lines and tissues (23). […] Equal protein-sample loading was monitored by probing the same membrane filter with antibodies against anti-β-actin or glyceraldehyde-3-phosphate dehydrogenase (GAPDH) (23). The probe proteins were detected using the Amersham enhanced chemiluminescence system according to the manufacturer's instructions. […]
A general note: In western blotting, separated proteins are transferred to a membrane and probed.

Consider bevacizumab [BVZ], for which the “Sp1 recruitment to its own promoter” value in experiment [1] is reported as “did not affect Sp1 recruitment”. For the same substance, in experiment [2], the “cell growth in vitro” value is recorded as “did not affect the growth”. In addition, the “expression of Sp1, VEGF and EGFR” value in experiment [3] was “did not affect the expression of Sp1 or its major downstream molecules”.
